# According to ChEMBL document CHEMBL4808246 (Bioorg Med Chem, 2021):
# Legend:
# [1] = target: T1, Prostaglandin G/H synthase 2 (Homo sapiens, UniProt P35354); assay: Inhibition of human recombinant COX-2 assessed as production of PGE2 using arachidonic acid as a substrate preincubated for 60 mins followed by substrate addition and measured after 2 mins by ELISA analysis
# T1 sequence (P35354 whole entry): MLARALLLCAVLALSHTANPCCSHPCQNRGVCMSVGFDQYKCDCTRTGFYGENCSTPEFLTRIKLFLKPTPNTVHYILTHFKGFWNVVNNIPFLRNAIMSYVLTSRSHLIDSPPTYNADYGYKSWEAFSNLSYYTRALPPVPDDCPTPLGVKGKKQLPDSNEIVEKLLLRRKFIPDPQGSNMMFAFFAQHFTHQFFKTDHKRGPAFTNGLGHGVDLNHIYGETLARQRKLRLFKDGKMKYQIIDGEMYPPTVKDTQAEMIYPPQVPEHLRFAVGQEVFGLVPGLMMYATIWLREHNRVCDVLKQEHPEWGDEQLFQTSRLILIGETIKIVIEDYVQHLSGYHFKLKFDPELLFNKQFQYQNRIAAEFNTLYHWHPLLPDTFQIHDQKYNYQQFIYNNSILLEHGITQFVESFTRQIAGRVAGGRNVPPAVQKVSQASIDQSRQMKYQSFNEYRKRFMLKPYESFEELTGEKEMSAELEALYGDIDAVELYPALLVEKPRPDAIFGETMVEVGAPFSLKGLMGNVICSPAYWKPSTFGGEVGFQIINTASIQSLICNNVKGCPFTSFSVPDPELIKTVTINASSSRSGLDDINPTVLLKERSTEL
# [2] = target: T2, Prostaglandin G/H synthase 1 (Ovis aries) (UniProt P05979); assay: Inhibition of ovine COX-1 assessed as production of PGE2 using arachidonic acid as a substrate preincubated for 60 mins at 100 uM followed by substrate addition and measured after 2 mins by ELISA analysis relative to control; conditions: time 62.0 min
# T2 sequence (whole entry): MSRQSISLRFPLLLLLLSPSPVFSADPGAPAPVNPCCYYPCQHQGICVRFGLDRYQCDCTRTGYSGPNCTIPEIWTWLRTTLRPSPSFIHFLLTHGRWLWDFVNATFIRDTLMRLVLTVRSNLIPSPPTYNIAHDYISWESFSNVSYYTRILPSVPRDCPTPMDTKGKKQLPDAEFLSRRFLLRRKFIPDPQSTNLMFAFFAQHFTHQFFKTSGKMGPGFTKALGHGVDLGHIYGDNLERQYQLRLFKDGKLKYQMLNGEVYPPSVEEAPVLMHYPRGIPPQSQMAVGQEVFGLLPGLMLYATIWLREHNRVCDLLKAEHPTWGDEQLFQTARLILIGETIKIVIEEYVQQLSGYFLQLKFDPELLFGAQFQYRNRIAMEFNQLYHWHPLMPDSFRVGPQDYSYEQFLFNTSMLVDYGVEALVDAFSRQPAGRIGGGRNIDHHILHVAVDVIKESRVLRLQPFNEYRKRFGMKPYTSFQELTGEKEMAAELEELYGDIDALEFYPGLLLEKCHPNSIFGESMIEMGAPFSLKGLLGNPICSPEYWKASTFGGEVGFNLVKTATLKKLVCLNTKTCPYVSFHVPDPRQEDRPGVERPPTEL
# [3] = target: T2, Prostaglandin G/H synthase 1 (Ovis aries); assay: Inhibition of ovine COX-1 assessed as production of PGE2 using arachidonic acid as a substrate preincubated for 60 mins at 10 uM followed by substrate addition and measured after 2 mins by ELISA analysis relative to control
# [4] = target: T2, Prostaglandin G/H synthase 1 (Ovis aries); assay: Inhibition of ovine COX-1 assessed as production of PGE2 using arachidonic acid as a substrate preincubated for 60 mins at 1 uM followed by substrate addition and measured after 2 mins by ELISA analysis relative to control
# [5] = target: T2, Prostaglandin G/H synthase 1 (Ovis aries); assay: Inhibition of ovine COX-1 assessed as production of PGE2 using arachidonic acid as a substrate preincubated for 60 mins at 0.1 uM followed by substrate addition and measured after 2 mins by ELISA analysis relative to control
# [6] = target: T3, Prostaglandin G/H synthase 1 (Ovis aries, UniProt P05979); assay: Inhibition of ovine COX-1 assessed as production of PGE2 using arachidonic acid as a substrate preincubated for 60 mins followed by substrate addition and measured after 2 mins by ELISA analysis
# T3 sequence (P05979 whole entry): T2 sequence (whole entry)
# [7] = Selectivity index, ratio of IC50 for ovine COX-1 to IC50 for human COX-2
# [8] = Solubility of the compound in water; type: physicochemical; conditions: buffer
# Mus musculus [9] = assay: Antiinflammatory activity in mouse xylene induced ear edema model assessed as ear weight difference at 30 mg/kg, po once daily administered for 3 days prior to xylene stimulation and measured after 30 mins (reference value: 13.64 =/- 2.55 mg); type: functional; conditions: time 3 day
# Mus musculus [10] = assay: Antiinflammatory activity in mouse xylene induced ear edema model assessed as inhibition of auricular edemas at 30 mg/kg, po once daily administered for 3 days prior to xylene stimulation and measured after 30 mins relative to control; type: functional; conditions: 72 h, time 3 day
# Mus musculus [11] = assay: Analgesic activity in mouse model of acetic-acid induced writhing assessed as number of writhes at 30 mg/kg, po once daily administered for 3 days prior to acetic acid injection measured after 20 mins (reference value: 29.13+/-9.36); type: functional; conditions: time 3 day
# Mus musculus [12] = assay: Analgesic activity in mouse model of acetic-acid induced writhing assessed as inhibition of writhing at 30 mg/kg, po once daily administered for 3 days prior to acetic acid injection measured after 20 mins relative to control; type: functional; conditions: 72 h, time 3 day
# RAW264.7 [13] = assay: Cytotoxicity against mouse RAW 264.7 cells assessed as decreased cell viability at 0.01 to 10 uM measured after 18 hrs by MTT assay; type: cell-based; conditions: raw264.7, 18 h, dose 0.01-10 µM
# RAW264.7 [14] = assay: Cytotoxicity against mouse RAW 264.7 cells assessed as decreased cell viability at 100 uM measured after 18 hrs by MTT assay; type: cell-based; conditions: raw264.7, 18 h
# [15] = Acute oral toxicity in female kunming mouse assessed as survival at 2000 mg/kg measured once daily for 14 days; type: organism-based; conditions: in vivo, 336 h, time 14 day
# [16] = Acute oral toxicity in female kunming mouse assessed as effect on liver histopathology at 2000 mg/kg measured once daily for 14 days; type: organism-based; conditions: in vivo, 336 h, time 14 day
# [17] = Acute oral toxicity in female kunming mouse assessed as effect on kidney histopathology at 2000 mg/kg measured once daily for 14 days; type: organism-based; conditions: in vivo, 336 h, time 14 day
# RAW264.7 [18] = assay: Inhibition of LPS induced NO production in mouse RAW264.7 cells at 0.01 uM in the presence of 500 ng/mL LPS measured after 24 hrs by Griess reagent based assay relative to control; type: functional
# RAW264.7 [19] = assay: Inhibition of LPS induced NO production in mouse RAW264.7 cells at 0.1 uM in the presence of 500 ng/mL LPS measured after 24 hrs by Griess reagent based assay relative to control; type: functional
# RAW264.7 [20] = assay: Inhibition of LPS induced NO production in mouse RAW264.7 cells at 1 uM in the presence of 500 ng/mL LPS measured after 24 hrs by Griess reagent based assay relative to control; type: functional
# RAW264.7 [21] = assay: Inhibition of LPS induced NO production in mouse RAW264.7 cells at 10 uM in the presence of 500 ng/mL LPS measured after 24 hrs by Griess reagent based assay relative to control; type: functional
# RAW264.7 [22] = assay: Inhibition of LPS induced NO production in mouse RAW264.7 cells at 100 uM in the presence of 500 ng/mL LPS measured after 24 hrs by Griess reagent based assay relative to control; type: functional
# [23] = Acute oral toxicity in female kunming mouse assessed as signs of gross toxicity measured once daily for 14 days; conditions: in vivo, time 14 day
SMILES,IC50 [1],inhibition [2],inhibition [3],inhibition [4],inhibition [5],IC50 [6],Ratio [7],solubility [8],Activity (Mus musculus [9]),inhibition in vivo at 30 mg/kg (Mus musculus [10]),Activity (Mus musculus [11]),inhibition in vivo at 30 mg/kg (Mus musculus [12]),Activity (RAW264.7 [13]),Activity (RAW264.7 [14]),Activity [15],inhibition at 0.01 µM (RAW264.7 [18]),inhibition at 0.1 µM (RAW264.7 [19]),inhibition at 1 µM (RAW264.7 [20]),inhibition at 10 µM (RAW264.7 [21]),inhibition at 100 µM (RAW264.7 [22]),other results
Cc1ccc(-c2cc(C)n(S(=O)(=O)Oc3ccc(I)cc3)n2)cc1,9.2 nM,48%,41%,35%,17%,96600 nM,10500,Insoluble,9.96 mg,27%,24.13,17.2%,Non-Toxic,40%,Non-Toxic,–,–,–,–,–,Activity [16]: Non-Toxic; Activity [17]: Non-Toxic
Cc1ccc(-c2cc(C)n(S(=O)(=O)Oc3ccccc3)n2)cc1,1.1 nM,70%,72%,55%,34%,500 nM,455,Insoluble,11.57 mg,15.2%,14.38,50.7%,–,–,–,10.5%,18.1%,19.3%,21.1%,31.6%,LD50 at 336 h [23]: > 2000 mg/kg
Cc1ccc(-c2cc(C(F)(F)F)nn2-c2ccc(S(N)(=O)=O)cc2)cc1 [CELECOXIB],–,–,–,–,–,–,–,Insoluble,9.79 mg,28.2%,18.63,–,80%,–,–,16.5%,19.6%,16.5%,14.8%,50.2%,–
Cc1ccc(-c2cc(C)n(S(=O)(=O)Oc3ccccc3Cl)n2)cc1,530 nM,33%,26%,24%,20%,> 100000 nM,> 189,Insoluble,9.96 mg,27%,15,48.5%,80%,80%,Non-Toxic,12.6%,23.6%,23.8%,22%,29.4%,LD50 at 336 h [23]: > 2000 mg/kg; Activity [16]: Non-Toxic; Activity [17]: Non-Toxic
